Test [1] relates to MV4-11. Nature of the test: cells. Further details: species or system AML cell lines (8); Secondary HTS, 10-point dose-response in triplicate, Cell Titer Glo viability, four-parameter fit EC50. To be noted: Homo sapiens, MV4-11, 72 h, read-out: MV4-11.
Test [2] deals with MOLM-13. Put plainly: cells. Also on record: species or system AML cell lines (8); Secondary HTS, 10-point dose-response in triplicate, Cell Titer Glo viability, four-parameter fit EC50. To be noted: Homo sapiens, MOLM-13, 72 h, read-out: MOLM-13.
In test [3] the test system is CMS. Nature of the test: Secondary dose-response HTS, Cell Titer Glo. The format is cell-based, human. The following applies: Homo sapiens, HTS; secondary high-throughput screen; CMS; read-out: average effective concentration, CMS. For orientation: Cellular ATP, detected with luciferase, serves as a proxy for viable cell number.
For test [4], the system named is U937. Nature of the test: cells. Also on record: species or system AML cell lines (8); Secondary HTS, 10-point dose-response in triplicate, Cell Titer Glo viability, four-parameter fit EC50. The following applies: Homo sapiens, U-937, 72 h, read-out: U937.
For test [5], the system named is CHRF288-11. Put plainly: cells. Also on record: species or system AML cell lines (8); Secondary HTS, 10-point dose-response in triplicate, Cell Titer Glo viability, four-parameter fit EC50. The following applies: 72 h, read-out: CHRF288-11.
The test system of test [6] is CMK. Nature of the test: Secondary dose-response HTS, Cell Titer Glo. Type of test: cell-based, human. To be noted: Homo sapiens; secondary high-throughput screen; CMK; read-out: average effective concentration, CMK.
For test [7], the system named is M07e. Put plainly: cells. Also on record: species or system AML cell lines (8); Secondary HTS, 10-point dose-response in triplicate, Cell Titer Glo viability, four-parameter fit EC50. To be noted: M-07e, 72 h, read-out: M07e.
The test system of test [8] is ML-2. Put plainly: cells. Further details: species or system AML cell lines (8); Secondary HTS, 10-point dose-response in triplicate, Cell Titer Glo viability, four-parameter fit EC50. To be noted: Homo sapiens, ML-2, 72 h, read-out: ML-2.
Test [9] relates to MV4-11. Put plainly: Secondary dose-response HTS, Cell Titer Glo. To be noted: Homo sapiens; secondary high-throughput screen; MV4-11; read-out: average effective concentration, MV4-11. Type of test: cell-based, human.
The subject of test [10] is CMS. Put plainly: cells. Also on record: species or system AML cell lines (8); Secondary HTS, 10-point dose-response in triplicate, Cell Titer Glo viability, four-parameter fit EC50. To be noted: 72 h, read-out: CMS.
In test [11] the test system is CMK. Put plainly: cells. Also on record: species or system AML cell lines (8); Secondary HTS, 10-point dose-response in triplicate, Cell Titer Glo viability, four-parameter fit EC50. The following applies: Homo sapiens, CMK, 72 h, read-out: CMK.
Test [12] concerns MV4-11. Further details: species or system AML cell lines (8); Primary HTS, single concentration about 10 uM, Cell Titer Glo viability; log10 luminescence, per cent inhibition relative to cycloheximide control. The following applies: 72 h, relative to cycloheximide control, log10 luminescence; inhibitor.
The test system of test [13] is M07e. Also on record: species or system AML cell lines (8); Primary HTS, single concentration about 10 uM, Cell Titer Glo viability; log10 luminescence, per cent inhibition relative to cycloheximide control. To be noted: 72 h, relative to cycloheximide control, log10 luminescence; inhibitor.
For test [14], the system named is ML-2. Also on record: species or system AML cell lines (8); Primary HTS, single concentration about 10 uM, Cell Titer Glo viability; log10 luminescence, per cent inhibition relative to cycloheximide control. To be noted: 72 h, relative to cycloheximide control, log10 luminescence; inhibitor.
Test [15] concerns MOLM-13. Further details: species or system AML cell lines (8); Primary HTS, single concentration about 10 uM, Cell Titer Glo viability; log10 luminescence, per cent inhibition relative to cycloheximide control. To be noted: 72 h, relative to cycloheximide control, log10 luminescence; inhibitor.
The subject of test [16] is CMS. Also on record: species or system AML cell lines (8); Primary HTS, single concentration about 10 uM, Cell Titer Glo viability; log10 luminescence, per cent inhibition relative to cycloheximide control. The following applies: 72 h, relative to cycloheximide control, log10 luminescence; inhibitor.
The test system of test [17] is U937. Further details: species or system AML cell lines (8); Primary HTS, single concentration about 10 uM, Cell Titer Glo viability; log10 luminescence, per cent inhibition relative to cycloheximide control. To be noted: 72 h, relative to cycloheximide control, log10 luminescence; inhibitor.
The subject of test [18] is CMK. Also on record: species or system AML cell lines (8); Primary HTS, single concentration about 10 uM, Cell Titer Glo viability; log10 luminescence, per cent inhibition relative to cycloheximide control. The following applies: 72 h, relative to cycloheximide control, log10 luminescence; inhibitor.
In test [19] the test system is CHRF288-11. Further details: species or system AML cell lines (8); Primary HTS, single concentration about 10 uM, Cell Titer Glo viability; log10 luminescence, per cent inhibition relative to cycloheximide control. The following applies: 72 h, relative to cycloheximide control, log10 luminescence; inhibitor.

Regarding `Cc1cc(Nc2nc(N[C@@H](C)c3ncc(F)cn3)ncc2Cl)n[nH]1` [AZD1480], the EC50 in test [1] was greater than 10 µM; in test [2] it was greater than 10 µM; in test [3], 3.3 µM; in [4], greater than 10 µM; in test [5] it was greater than 10 µM; in test [6] it was greater than 10 µM. Further, the EC50 in [7] and in test [8] was greater than 10 µM in each case.
Regarding `NC(=O)[C@@H](CCC(F)(F)F)N(Cc1ccc(-c2ncon2)cc1F)S(=O)(=O)c1ccc(Cl)cc1` [BMS-708163], the EC50 in test [2], in [9], in test [4], in test [5], in [10] and in test [11] was greater than 10 µM in each case. Moreover, the EC50 in test [7] and in [8] was greater than 10 µM in each case.
As to `O=c1[nH]cc(F)c(=O)[nH]1` [Compound 5-FLUOROURACIL], the EC50 in test [2], in test [9], in test [4], in test [5], in test [10] and in test [11] was greater than 10 µM throughout. For the same molecule, the EC50 in test [7] and in test [8] was greater than 10 µM each time.
In the case of `C[C@]1(O)C[C@@H](c2nc(-c3ccc4ccc(-c5ccccc5)nc4c3)c3c(N)nccn32)C1` [LINSITINIB], in test [12], the MV4-11 %inh is reported as 7.816%. Also, the EC50 in [2], in test [9], in test [4], in [5], in test [10] and in test [11] was greater than 10 µM in each case. Further, the EC50 in [7] and in test [8] was greater than 10 µM throughout. The M07e %inh in test [13] was 2.638%. This molecule displayed an ML-2 %inh in test [14] of 11.6%. Besides, the MOLM-13 %inh in test [15] is listed as 2.501%. The molecule further came in with a CMS %inh in [16] of 2.626%. The same molecule showed a U937 %inh in [17] of 2.082%. The same molecule came in with a CMK %inh in test [18] of 18.57%. Moreover, the CHRF288-11 %inh in [19] was determined as 34.61%.
In the case of `CC1(C)CCC(C)(C)c2cc(NC(=O)c3ccc(C(=O)O)cc3)ccc21` [TAMIBAROTENE], the EC50 in [1], in test [2], in test [4], in [5], in [10] and in [11] was greater than 10 µM throughout. The EC50 in test [7] and in test [8] was greater than 10 µM each time.
Regarding `CCOC(=O)c1ccc(C#Cc2ccc3c(c2)C(C)(C)CCS3)nc1` [TAZAROTENE], the EC50 in test [1], in test [2], in test [4], in [5], in [10] and in test [11] was greater than 10 µM throughout. For the same molecule, the EC50 in test [7] and in test [8] was greater than 10 µM in each case.
Regarding `Cn1nnc2c(C(N)=O)ncn2c1=O` [TEMOZOLOMIDE], the EC50 in test [1], in test [2], in [4], in test [5], in test [10] and in [11] was greater than 10 µM in each case. Further, the EC50 in test [7] and in test [8] was greater than 10 µM throughout.
For `CO[C@H]1C[C@@H]2CC[C@@H](C)[C@@](O)(O2)C(=O)C(=O)N2CCCC[C@H]2C(=O)O[C@H]([C@H](C)C[C@@H]2CC[C@@H](OC(=O)C(C)(CO)CO)[C@H](OC)C2)CC(=O)[C@H](C)/C=C(\C)[C@@H](O)[C@@H](OC)C(=O)[C@H](C)C[C@H](C)/C=C/C=C/C=C/1C` [TEMSIROLIMUS], the EC50 in test [1], in [2], in [4], in test [5], in test [10] and in test [11] was greater than 10 µM throughout. Also, the EC50 in test [7] and in test [8] was greater than 10 µM each time.
As for `COc1cc2nccc(Oc3ccc(NC(=O)Nc4cc(C)on4)c(Cl)c3)c2cc1OC` [TIVOZANIB], the EC50 in [2] is greater than 10 µM; in [9], 7.8 µM; in test [4], greater than 10 µM; in test [5], greater than 10 µM; in test [10], greater than 10 µM; in [11] it was greater than 10 µM. For the same molecule, the EC50 in [7] and in test [8] was greater than 10 µM each time.
As to `CC1=C(/C=C/C(C)=C/C=C/C(C)=C/C(=O)O)C(C)(C)CCC1` [TRETINOIN], the EC50 in [1], in test [2], in test [4], in test [5], in test [10] and in test [11] was greater than 10 µM in each case. Moreover, the EC50 in test [7] and in test [8] was greater than 10 µM throughout.
In the case of `C[C@]1(c2nc3c(C(N)=O)cccc3[nH]2)CCCN1` [VELIPARIB], the EC50 in [1], in [2], in test [4], in [5], in test [10] and in [11] was greater than 10 µM each time. Besides, the EC50 in test [7] and in test [8] was greater than 10 µM each time.
Turning to `CCCS(=O)(=O)Nc1ccc(F)c(C(=O)c2c[nH]c3ncc(-c4ccc(Cl)cc4)cc23)c1F` [VEMURAFENIB], the EC50 in test [1], in test [2], in [4], in test [5], in test [10] and in test [11] was greater than 10 µM each time. Moreover, the EC50 in test [7] and in test [8] was greater than 10 µM throughout.
Consider `CS(=O)(=O)c1ccc(C(=O)Nc2ccc(Cl)c(-c3ccccn3)c2)c(Cl)c1` [VISMODEGIB], for which the EC50 in [1], in test [2], in [4], in test [5], in test [10] and in test [11] was greater than 10 µM in each case. The EC50 in test [7] and in test [8] was greater than 10 µM in each case.
With `COc1ccc(Cl)c(Nc2nc3ccccc3nc2NS(=O)(=O)c2cccc(NC(=O)C(C)(C)N)c2)c1` [XL147], the EC50 in [1], in test [2], in test [4], in test [5], in test [10] and in test [11] was greater than 10 µM throughout. Also, the EC50 in [7] and in test [8] was greater than 10 µM each time.
On to `FC(F)c1nc2ccccc2n1-c1nc(N2CCOCC2)nc(N2CCOCC2)n1` [ZSTK-474], for which the EC50 in test [1], in test [2], in test [4], in test [5], in [10] and in [11] was greater than 10 µM in each case. Further, the EC50 in test [7] and in [8] was greater than 10 µM each time.
